Experiments:
MCF-7 cells = test: Prodrug uptake, conversion and metabolism (HPLC of media), MCF-7; type: in vitro ADME, human; conditions: prodrug 10 μM, days 1–7
Method: MCF-7 cells were seeded into 25 ml flasks at appropriate densities (5×10^5–5×10^6). After 24 h, medium was changed and drug introduced at a final concentration of 10 μM. Media samples, collected from flasks at time zero and 24 h intervals, were mixed with 1.5-fold volumes of high performance liquid chromatography (HPLC) grade acetonitrile to precipitate protein and centrifuged at 14 000 g for 5 min. Supernatants (600 μl) were mixed with 400 μl 10% acetonitrile in 1% acetic acid and analysed by HPLC. The system consisted of Beckman System Gold equipment (solvent module 128, autosampler 507e and multiple wavelength UV detector 168). Separation of parent compounds and biotransformation products was effected at room temperature on a Phenomenex Aqua C18 reversed-phase column (150×4.6 mm). The mobile phase was formed by increasing, then decreasing the acetonitrile concentration in 1% acetic acid over 20 min by mixing two solutions: acetonitrile-water-acetic acid (10 : 90 : 1, v v^−1) and acetonitrile-water-acetic acid (80 : 20 : 1 v v^−1) and delivered at a flow rate of 1 ml min^−1. Compounds were detected at 324 nm.

[1] = test system: CYP1A1 activity (EROD) in MCF-7 cells; test: Induction of EROD activity in lysates of treated MCF-7 cells; type: cell-based, human; conditions: lysates of MCF-7 cells treated with 1 μM, 24 h; negligible activity in untreated lysates; mean of three, s.d. <10%
Method: (§1) A sensitive and rapid fluorometric assay was used to measure EROD activity ([Burke et al, 1994]). Incubation mixtures (total 1 ml) consisted of 100 mM Tris-HCl (pH 7.4), 50 μM MgCl2, 100 μM 7-ethoxyresorufin and 100 μl cell homogenate. Homogenates were prepared following treatment of cells for 24 h with compounds 1, 2, 2a, 2b, 3, 3a, 3b, 4, 4a and 4b or vehicle alone and protein content determined (n=3). Thus induction of ethoxyresorufin O-deethylation by agents under study, catalysed by CYP1A1 activity, could be determined. Alternatively, microsomes expressing recombinant CYP1A1 (0.1 mg ml^−1) provided the enzyme source for EROD catalysis, in the presence or absence of drug, in order to determine inhibition of CYP1A1 activity by compounds 1, 2, 2a, 2b, 3, 3a, 3b, 4, 4a and 4b. Incubation mixtures were pre-incubated for 5 min at 37°C before initiation of reaction by addition of NADPH (500 μM). Following further incubations at 37°C (30 min for cell homogenates, 15 min for CYP1A1 microsomes), reactions were terminated by addition of 3 ml ice-cold acetonitrile. Reaction mixtures were centrifuged (1400 r.p.m., 10 min) before analyses of supernatants. Fluorescence was read on a Perkin-Elmer LS-5 luminescence spectrometer (excitation, 530 nm; emission 585 nm). Estimation of resorufin reaction product (pmoles mg^−1 protein, pmoles 100 μg^−1 microsomes), as a measure of CYP1A1 activity, was determined following performance of a resorufin standard curve.

[2] = design: method as in Bradshaw et al, 2002; conditions: in vivo, compound 2 regenerated from lysylamide prodrug compound 2b; ref Bradshaw et al, 2002; cited from earlier work
MDA-N = test: NCI in vitro cytotoxicity assay (SRB), MDA-N; type: cell-based; conditions: Homo sapiens, 48 h exposure, sulforhodamine B assay, mean graph, read-out: Log10 GI50 (MDA-N) (converted)
Method: (§2) Cell culture and drug application procedures have been described previously ([Boyd and Paull, 1995]). Briefly, cell lines were inoculated into a series of 96-well microtiter plates, with varied seeding densities depending on growth characteristics of each cell line. Following a 24 h drug free incubation, test agents were added at five 10-fold dilutions with a maximum concentration of 100 μM. Cellular protein levels were determined after 48 h drug exposure by sulphorhodamine B colorimetry.

[3] = test system: CYP1A1 protein expression in HCT 116 cells; test: Western blot of CYP1A1 protein, HCT 116 lysates; type: cell-based, human
Method: Whole cell lysates were prepared for examination of CYP1A1 protein expression from untreated MCF-7, IGROV-1 and HCT 116 cultures and following exposure of cells to compounds 1, 2, 2a, 2b, 3, 3a, 3b, 4, 4a and 4b. Following protein determination (n=3, [Bradford, 1976]) and addition of sample buffer, samples were boiled at 95°C for 5 min and solubilised proteins (50 μg) were separated by sodium dodecyl sulphate (SDS) polyacrylamide gel (10%) electrophoresis. Proteins were electroblotted to polyvinylidene difluoride (PVDF) membranes and probed for CYP1A1 protein with polyclonal antiserum specific for human CYP1A1/1A2 (Gentest Corporation). Secondary antibody was conjugated to alkaline phosphatase, and CYP1A1 was detected following brief (<10 min) incubation with bromochloroindolyl phosphate and nitro-blue tetrazolium in alkaline phosphatase buffer. Molecular weight markers and a positive control of recombinant CYP1A1 (Gentest Corporation), included in all blots, confirmed detection of 52 kDa CYP1A1 protein.

EKVX = test: NCI in vitro cytotoxicity assay (SRB), EKVX; type: cell-based; conditions: Homo sapiens, 48 h exposure, sulforhodamine B assay, mean graph, read-out: Log10 GI50 (EKVX) (converted)
Method: as §2

CCRF-CEM = test: NCI in vitro cytotoxicity assay (SRB), CCRF-CEM; type: cell-based; conditions: Homo sapiens, 48 h exposure, sulforhodamine B assay, mean graph, read-out: Log10 GI50 (CCRF-CEM) (converted)
Method: as §2

MDA-MB-435 = test: NCI in vitro cytotoxicity assay (SRB), MDA-MB-435; type: cell-based; conditions: Homo sapiens, 48 h exposure, sulforhodamine B assay, mean graph, read-out: Log10 GI50 (MDA-MB-435) (converted)
Method: as §2

CAKI-1 = test: NCI in vitro cytotoxicity assay (SRB), CAKI-1; type: cell-based; conditions: Homo sapiens, 48 h exposure, sulforhodamine B assay, mean graph, read-out: Log10 GI50 (CAKI-1) (converted)
Method: as §2

[4] = test system: CYP1A1 activity (EROD) in IGROV-1 cells; test: EROD activity in homogenates of treated IGROV-1 cells; type: cell-based, human; conditions: IGROV-1 cells treated 24 h; biphasic dose response
Method: as §1, with “Reaction mixtures were centrifuged (1400 r.p.m., 10 min) before analyses of supernatants.” left out

HCC-2998 = test: NCI in vitro cytotoxicity assay (SRB), HCC-2998; type: cell-based; conditions: Homo sapiens, 48 h exposure, sulforhodamine B assay, mean graph, read-out: Log10 GI50 (HCC-2998) (converted)
Method: as §2

RPMI-8226 = test: NCI in vitro cytotoxicity assay (SRB), RPMI-8226; type: cell-based; conditions: Homo sapiens, 48 h exposure, sulforhodamine B assay, mean graph, read-out: Log10 GI50 (RPMI-8226) (converted)
Method: as §2

OVCAR-4 = test: NCI in vitro cytotoxicity assay (SRB), OVCAR-4; type: cell-based; conditions: Homo sapiens, 48 h exposure, sulforhodamine B assay, mean graph, read-out: Log10 GI50 (OVCAR-4) (converted)
Method: as §2

[5] = test system: breast and ovarian xenografts; design: method as in Bradshaw et al, 2002; conditions: in vivo; ref Bradshaw et al, 2002; cited from earlier work

| SMILES | Biotransformation products of liberated parent amine in media (MCF-7 cells) | Induction EROD activity [1] | Persistence of plasma concentrations sufficient for cytocidal activity against human mammary carcinoma cells [2] | GI50 (MDA-N) | CYP1A1 protein expression (Western blot) [3] | GI50 (EKVX) | GI50 (CCRF-CEM) | GI50 (MDA-MB-435) | GI50 (CAKI-1) | Concentration giving maximum induction of EROD activity [4] | GI50 (HCC-2998) | GI50 (RPMI-8226) | GI50 (OVCAR-4) | Growth of breast and ovarian xenografts [5] |
| --- | --- | --- | --- | --- | --- | --- | --- | --- | --- | --- | --- | --- | --- | --- |
| Cc1cc(-c2nc3cc(F)ccc3s2)ccc1N [Compound 2, 2-(4-Amino-3-methylphenyl)-5-fluorobenzothiazole] | No biotransformation products could be detected | 36.64 nM resorufin mg^-1 protein | > 6 h | > 100000 nM | not induced | 1410 nM | 1230 nM | > 100000 nM | 25700 nM | – | – | – | – | – |
| Cc1cc(-c2nc3cc(F)ccc3s2)ccc1NC(=O)[C@@H](N)CCCCN [Compound 2b] | – | 35.56 nM resorufin mg^-1 protein | – | – | not induced | – | – | 1910 nM | – | 1000 nM | 741 nM | 2450 nM | 2040 nM | suppresses significantly |
